Laboratory results taken from patent US8541588B2, “Sulfonamide derivatives” (Pfizer Limited, priority 2009, dated 2013).

Target: T1, Nav1.7 (or SCN9A) channel; HEK cells stably transfected with hSCN9A (Homo sapiens, UniProt Q15858)
T1 construct: expressed in transfected cells
Assay: Nav1.7 block, PatchXpress 7000 automated whole-cell voltage clamp, estimated IC50 (EIC50)
Type: cell-based
Conditions: PatchXpress platform, estimated IC50

[1] = hSCN9A HEK cells held at V1/2 of inactivation
[2] = hSCN9A HEK cells, Examples 283-814
[3] = hSCN9A HEK cells, Examples 815-1040

T1 sequence (Q15858 whole entry): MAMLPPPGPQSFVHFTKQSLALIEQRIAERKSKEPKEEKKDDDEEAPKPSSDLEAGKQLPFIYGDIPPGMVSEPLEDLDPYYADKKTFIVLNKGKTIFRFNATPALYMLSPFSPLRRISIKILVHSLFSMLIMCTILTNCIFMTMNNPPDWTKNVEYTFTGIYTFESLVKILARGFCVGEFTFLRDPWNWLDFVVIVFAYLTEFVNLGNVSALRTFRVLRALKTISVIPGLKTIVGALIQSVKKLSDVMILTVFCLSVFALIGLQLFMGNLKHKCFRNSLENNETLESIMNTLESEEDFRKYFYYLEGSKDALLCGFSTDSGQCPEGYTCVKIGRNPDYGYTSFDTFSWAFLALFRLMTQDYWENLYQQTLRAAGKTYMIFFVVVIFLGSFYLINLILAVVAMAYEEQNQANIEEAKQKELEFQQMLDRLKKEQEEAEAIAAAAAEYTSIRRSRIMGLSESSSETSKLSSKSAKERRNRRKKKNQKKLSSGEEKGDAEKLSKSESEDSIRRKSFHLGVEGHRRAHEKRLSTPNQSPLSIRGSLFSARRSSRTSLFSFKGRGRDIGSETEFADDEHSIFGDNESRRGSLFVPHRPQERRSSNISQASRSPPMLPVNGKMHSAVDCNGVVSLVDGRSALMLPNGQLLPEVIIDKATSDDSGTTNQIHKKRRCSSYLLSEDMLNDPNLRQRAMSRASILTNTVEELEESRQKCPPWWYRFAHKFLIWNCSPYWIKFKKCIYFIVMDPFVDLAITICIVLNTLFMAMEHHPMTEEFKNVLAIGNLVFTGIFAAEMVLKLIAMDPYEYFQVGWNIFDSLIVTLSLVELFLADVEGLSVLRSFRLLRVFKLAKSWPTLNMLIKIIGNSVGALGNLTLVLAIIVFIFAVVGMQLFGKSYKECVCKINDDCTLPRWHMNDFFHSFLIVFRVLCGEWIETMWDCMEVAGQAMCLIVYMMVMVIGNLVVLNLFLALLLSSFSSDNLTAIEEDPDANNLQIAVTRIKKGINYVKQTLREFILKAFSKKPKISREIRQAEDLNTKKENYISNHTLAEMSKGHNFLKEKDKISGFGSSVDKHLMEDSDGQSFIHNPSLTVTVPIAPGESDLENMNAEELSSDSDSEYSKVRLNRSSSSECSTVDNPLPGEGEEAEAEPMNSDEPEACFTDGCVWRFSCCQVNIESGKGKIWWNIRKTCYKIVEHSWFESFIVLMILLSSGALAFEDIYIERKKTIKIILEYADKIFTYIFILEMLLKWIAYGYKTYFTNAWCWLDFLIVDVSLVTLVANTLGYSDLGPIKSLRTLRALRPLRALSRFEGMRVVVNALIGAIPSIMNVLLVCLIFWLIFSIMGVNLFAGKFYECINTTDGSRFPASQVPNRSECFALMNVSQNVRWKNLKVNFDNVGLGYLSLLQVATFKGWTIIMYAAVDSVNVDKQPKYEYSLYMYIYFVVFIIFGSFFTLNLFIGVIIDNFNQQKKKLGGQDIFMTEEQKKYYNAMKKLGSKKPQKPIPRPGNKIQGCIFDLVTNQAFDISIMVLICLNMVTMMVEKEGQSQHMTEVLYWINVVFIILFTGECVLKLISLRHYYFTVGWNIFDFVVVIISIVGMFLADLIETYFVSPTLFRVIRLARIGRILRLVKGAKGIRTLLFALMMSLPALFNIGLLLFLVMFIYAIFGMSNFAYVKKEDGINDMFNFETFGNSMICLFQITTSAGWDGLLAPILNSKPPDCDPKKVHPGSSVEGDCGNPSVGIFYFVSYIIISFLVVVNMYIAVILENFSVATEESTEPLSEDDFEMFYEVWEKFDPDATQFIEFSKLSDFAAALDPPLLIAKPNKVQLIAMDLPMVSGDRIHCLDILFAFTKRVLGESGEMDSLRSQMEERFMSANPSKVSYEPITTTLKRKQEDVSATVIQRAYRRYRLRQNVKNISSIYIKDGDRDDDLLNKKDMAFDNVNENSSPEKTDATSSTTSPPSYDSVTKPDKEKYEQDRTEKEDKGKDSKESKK

| IC50 [2] | SMILES | other results |
| --- | --- | --- |
| 2300 nM | Cc1cccnc1-c1ccc(Oc2ccc(S(=O)(=O)Nc3nccs3)cc2C#N)cc1 [Example 455, 3-cyano-4-[4-(3-methylpyridin-2-yl)phenoxy]-N-1,3-thiazol-2-ylbenzenesulfonamide] |  |
| 50 nM | N#Cc1cc(S(=O)(=O)Nc2ncns2)ccc1Oc1ccc(Cl)cc1C1CCNCC1 [Example 505, 4-(4-chloro-2-piperidin-4-ylphenoxy)-3-cyano-N-1,2,4-thiadiazol-5-ylbenzenesulfonamide] |  |
| 310 nM | Cn1nc(C(F)F)cc1-c1ccc(Oc2ccc(S(=O)(=O)Nc3nccs3)cc2C#N)cc1 [Example 383, 3-cyano-4-{4-[3-(difluoromethyl)-1-methyl-1H-pyrazol-5-yl]phenoxy}-N-1,3-thiazol-2-ylbenzenesulfonamide] |  |
| 78 nM | N#Cc1cc(S(=O)(=O)Nc2nccs2)ccc1Oc1ccc(I)cc1-c1cn[nH]c1 [Example 696, 3-cyano-4-[4-iodo-2-(1H-pyrazol-4-yl)phenoxy]-N-1,3-thiazol-2-ylbenzenesulfonamide] |  |
| 3600 nM | CCn1nc(C(F)(F)F)cc1-c1ccc(Oc2ccc(S(=O)(=O)Nc3cnsn3)cc2C#N)cc1 [Example 341, 3-cyano-4-{4-[1-ethyl-3-(trifluoromethyl)-1H-pyrazol-5-yl]phenoxy}-N-1,2,5-thiadiazol-3-ylbenzenesulfonamide] |  |
| 2600 nM | N#Cc1cc(S(=O)(=O)Nc2nccs2)ccc1Oc1ccc(Cn2cccn2)cc1F [Example 642, 3-cyano-4-[2-fluoro-4-(1H-pyrazol-1-ylmethyl)phenoxy]-N-1,3-azol-2-ylbenzenesulfonamide] |  |
| 7.6 nM | N#Cc1cc(S(=O)(=O)Nc2ncc(Cl)s2)ccc1Oc1ccc(Cl)cc1-c1cn[nH]c1 [Example 786, N-(5-Chloro-1,3-thiazol-2-yl)-3-cyano-4-[4-chloro-2-(1H-pyrazol-4-yl)phenoxy]benzenesulfonamide] |  |
| 11000 nM | N#Cc1cc(S(=O)(=O)Nc2cscn2)ccc1Oc1cccc(Cc2cc[nH]n2)c1 [Example 768, 3-cyano-4-[3-(1H-pyrazol-3-ylmethyl)phenoxy]-N-1,3-thiazol-4-ylbenzenesulfonamide] |  |
| >1000 nM | CC1CN(c2ccc(Oc3ccc(S(=O)(=O)Nc4nccs4)cc3C#N)cc2)C(=O)N1 (stereo not drawn) [Example 484, 3-cyano-4-[4-(4-methyl-2-oxoimidazolidin-1-yl)phenoxy]-N-1,3-thiazol-2-ylbenzenesulfonamide] |  |
| 17 nM | Cn1nccc1-c1cc(C(F)(F)F)ccc1Oc1ccc(S(=O)(=O)Nc2nccs2)cc1C#N [Example 440, 3-cyano-4-[2-(1-methyl-1H-pyrazol-5-yl)-4-(trifluoromethyl)phenoxy]-N-1,3-thiazol-2-ylbenzenesulfonamide] |  |
| 300 nM | CCn1nc(C(F)(F)F)cc1-c1ccc(Oc2ccc(S(=O)(=O)Nc3nccs3)cc2F)cc1 [Example 408, 4-{4-[1-ethyl-3-(trifluoromethyl)-1H-pyrazol-5-yl]phenoxy}-3-fluoro-N-1,3-thiazol-2-ylbenzenesulfonamide] |  |
| 190 nM | COc1cc(-c2ccccc2Oc2ccc(S(=O)(=O)Nc3nccs3)cc2C#N)ccc1C#N [Example 703] |  |
| 7.8 nM | Cn1nccc1-c1cc(OC(F)(F)F)ccc1Oc1ccc(S(=O)(=O)Nc2nccs2)cc1C#N [Example 783, 3-cyano-4-[2-(1-methyl-1H-pyrazol-5-yl)-4-(trifluoromethoxy)phenoxy]-N-1,3-thiazol-2-ylbenzenesulfonamide] |  |
| >300 nM | Cn1cnc(-c2cc(Cl)ccc2Oc2ccc(S(=O)(=O)Nc3nccs3)cc2C#N)n1 [Example 325, 4-[4-chloro-2-(1-methyl-1H-1,2,4-triazol-3-yl)phenoxy]-3-cyano-N-1,3-thiazol-2-ylbenzenesulfonamide] |  |
| 1000 nM | Cn1nc(C(F)(F)F)cc1-c1ccc(Oc2ccc(S(=O)(=O)Nc3nccs3)cc2F)cc1 [Example 684, 3-fluoro-4-{4-[1-methyl-3-(trifluoromethyl)-1H-pyrazol-5-yl]phenoxy}-N-1,3-thiazol-2-ylbenzenesulfonamide] |  |

More lines, now with the values behind:

| SMILES | IC50 [2] | other results |
| --- | --- | --- |
| Cn1nccc1-c1cc(Cl)ccc1Oc1ccc(S(=O)(=O)Nc2ncc(F)s2)cc1F [Example 275, 4-[4-chloro-2-(2-methyl-2H-pyrazol-3-yl)-phenoxy]-3-fluoro-N-(5-fluoro-thiazol-2-yl)-benzenesulfonamide] |  | IC50 [1]: 70 nM |
| Cn1nccc1-c1cc(Cl)ccc1Oc1cc(F)c(S(=O)(=O)Nc2cscn2)cc1F [Example 606, 4-[4-chloro-2-(1-methyl-1H-pyrazol-5-yl)phenoxy]-2,5-difluoro-N-1,3-thiazol-4-ylbenzenesulfonamide] | 130 nM |  |
| N#Cc1cc(S(=O)(=O)Nc2ncns2)ccc1Oc1cc(F)c(OC(F)(F)F)cc1-c1ccnnc1 [Example 958, 3-cyano-4-[5-fluoro-2-pyridazin-4-yl-4-(trifluoromethoxy)phenoxy]-N-1,2,4-thiadiazol-5-ylbenzenesulfonamide] |  | IC50 [3]: 5.9 nM |
| Cc1cc(-c2ccccc2Oc2ccc(S(=O)(=O)Nc3nccs3)cc2F)sn1 [Example 128, 3-fluoro-4-[2-(3-methylisothiazol-5-yl)phenoxy]-N-1,3-thiazol-2-ylbenzenesulfonamide] |  | IC50 [1]: 3110 nM |
| N#Cc1cc(S(=O)(=O)Nc2ccc(F)cn2)ccc1Oc1ccc(C(F)(F)F)cc1-c1cn[nH]c1 [Example 315, 3-cyano-N-(5-fluoropyridin-2-yl)-4-[2-(1H-pyrazol-4-yl)-4-(trifluoromethyl)phenoxy]benzenesulfonamide] | 1200 nM |  |
| CCn1nc(C(F)(F)F)cc1-c1ccc(Oc2ccc(S(=O)(=O)Nc3ncc(F)s3)cc2C#N)c(F)c1 [Example 537, 3-cyano-4-{4-[1-ethyl-3-(trifluoromethyl)-1H-pyrazol-5-yl]-2-fluorophenoxy}-N-(5-fluoro-1,3-thiazol-2-yl)benzenesulfonamide] | 25 nM |  |
| Nc1cc(-c2cc(Cl)ccc2Oc2cc(F)c(S(=O)(=O)Nc3cnccn3)cc2Cl)ccn1 [Example 918, 4-[2-(2-aminopyridin-4-yl)-4-chlorophenoxy]-5-chloro-2-fluoro-N-pyrazin-2-ylbenzenesulfonamide] |  | IC50 [3]: 140 nM |
| Nc1cccc(-c2cc(C(F)(F)F)ccc2Oc2cc(F)c(S(=O)(=O)Nc3ncns3)cc2F)n1 [Example 555, 4-[2-(6-aminopyridin-2-yl)-4-(trifluoromethyl)phenoxy]-2,5-difluoro-N-1,2,4-thiadiazol-5-ylbenzenesulfonamide] | 14 nM |  |
| N#Cc1cc(S(=O)(=O)Nc2ncns2)ccc1Oc1ccc(F)cc1-c1cocn1 [Example 889, 3-cyano-4-[4-fluoro-2-(1,3-oxazol-4-yl)phenoxy]-N-1,2,4-thiadiazol-5-ylbenzenesulfonamide] |  | IC50 [3]: 670 nM |
| Cn1nccc1-c1cc(CCO)ccc1Oc1ccc(S(=O)(=O)Nc2ncc(F)s2)cc1C#N [Example 716, 3-cyano-N-(5-fluoro-1,3-thiazol-2-yl)-4-[4-(2-hydroxyethyl)-2-(1-methyl-1H-pyrazol-5-yl)phenoxy]benzenesulfonamide] | 430 nM |  |
| O=S(=O)(Nc1ncns1)c1cnc(Oc2ccc(C(F)(F)F)cc2-c2ccnnc2)c(Cl)c1 [Example 974, 5-chloro-6-[2-pyridazin-4-yl-4-(trifluoromethyl)phenoxy]-N-1,2,4-thiadiazol-5-ylpyridine-3-sulfonamide] |  | IC50 [3]: 74 nM |
| O=S(=O)(Nc1nncs1)c1cc(Cl)c(Oc2cc(C(F)(F)F)ccc2-c2ccnnc2)cc1F [Example 939, 5-chloro-2-fluoro-4-[2-pyridazin-4-yl-5-(trifluoromethyl)phenoxy]-N-1,3,4-thiadiazol-2-ylbenzenesulfonamide] |  | IC50 [3]: 48 nM |
| Cn1ccc(-c2cc(Cl)ccc2Oc2ccc(S(=O)(=O)Nc3nccs3)cc2F)n1 [Example 216, 4-(4-chloro-2-(1-methyl-1H-pyrazol-3-yl)phenoxy)-3-fluoro-N-(thiazol-2-yl)benzenesulfonamide] |  | IC50 [1]: 910 nM |
| N#Cc1cc(S(=O)(=O)Nc2nncs2)ccc1Oc1ccc(Cl)cc1-c1ccnc(N)c1 [Example 818, 4-[2-(2-aminopyridin-4-yl)-4-chlorophenoxy]-3-cyano-N-1,3,4-thiadiazol-2-ylbenzenesulfonamide] |  | IC50 [3]: 320 nM |
| Cc1[nH]ncc1-c1cc(Cl)ccc1Oc1ccc(S(=O)(=O)Nc2ncns2)cc1C#N [Example 865, 4-[4-chloro-2-(5-methyl-1H-pyrazol-4-yl)phenoxy]-3-cyano-N-1,2,4-thiadiazol-5-ylbenzenesulfonamide] |  | IC50 [3]: 4.4 nM |
| Cc1cccc(-c2ccc(F)c(F)c2)c1Oc1ccc(S(=O)(=O)Nc2ncns2)cc1C#N [Example 44, 3-cyano-4-[(3′,4′-difluoro-3-methylbiphenyl-2-yl)oxy]-N-1,2,4-thiadiazol-5-ylbenzenesulfonamide] |  | IC50 [1]: 5930 nM |
| Cn1nccc1-c1cc(F)cc(F)c1Oc1ccc(S(=O)(=O)Nc2ncns2)cc1C#N [Example 73, 3-cyano-4-[2,4-difluoro-6-(1-methyl-1H-pyrazol-5-yl)phenoxy]-N-1,2,4-thiadiazol-5-ylbenzenesulfonamide] |  | IC50 [1]: 23400 nM |
| Cn1ncc(-c2ccccc2)c1Oc1ccc(S(=O)(=O)Nc2ncc(Cl)s2)cc1C#N [Example 138, N-(5-chloro-1,3-thiazol-2-yl)-3-cyano-4-[(1-methyl-4-phenyl-1H-pyrazol-5-yl)oxy]benzenesulfonamide] |  | IC50 [1]: 38700 nM |
| N#Cc1cc(S(=O)(=O)Nc2ncc(Cl)s2)ccc1Oc1ccc(F)cc1-c1cccc(N)n1 [Example 991, 4-[2-(6-aminopyridin-2-yl)-4-fluorophenoxy]-N-(5-chloro-1,3-thiazol-2-yl)-3-cyanobenzenesulfonamide] |  | IC50 [3]: >10 nM |
| Nc1ncccc1-c1cc(Cl)ccc1Oc1cc(F)c(S(=O)(=O)Nc2ncns2)cc1Cl [Example 618, 4-[2-(2-aminopyridin-3-yl)-4-chlorophenoxy]-5-chloro-2-fluoro-N-1,2,4-thiadiazol-5-ylbenzenesulfonamide] | 11 nM |  |
| O=S(=O)(Nc1cscn1)c1ccc(Oc2ccc(-c3ccccc3)cc2)c(F)c1 [Example 273, 4-(biphenyl-4-yloxy)-3-fluoro-N-thiazol-4-yl-benzenesulfonamide] |  | IC50 [1]: 2170 nM |
